The record followed here is patent publication US7795279B2, “Method of inhibiting FLT3 kinase” (Janssen Pharmaceutica NV, priority 2005, dated 2010).

Data set [1] has as its system Baf3 cells. The data set is described as follows: Baf3 cell proliferation (non-specific toxicity control). It counts as cell-based, murine. Particulars: Mus musculus, IL-3 driven. An excerpt:
The IL-3 dependent, murine b-cell lymphoma cell line, Baf3, were used as a control to confirm the selectivity of compound inhibition of proliferation for representatives of the present invention by measuring non-specific growth inhibition by the compounds of the present invention (data not shown). To measure proliferation inhibition by compounds of the present invention, the luciferase based CellTiterGlo reagent (Promega), which quantifies total cell number based on total cellular ATP concentration, was used. […] Compound dilutions or 0.1% DMSO (vehicle control) are added to cells and the cells are allowed to grow for 72 hours at standard cell growth conditions (37° C., 5% CO2). […] To measure total cell growth an equal volume of CellTiterGlo reagent was added to each well, according to the manufacturer's instructions, and luminescence was quantified. Total cell growth was quantified as the difference in luminescent counts (relative light units, RLU) of cell number at Day 0 compared to total cell number at Day 3 (72 hours of growth and/or compound treatment). One hundred percent inhibition of growth is defined as an RLU equivalent to the Day 0 reading. Zero percent inhibition was defined as the RLU signal for the DMSO vehicle control at Day 3 of growth. MV4-11 cells express the FLT3 internal tandem duplication mutation, and thus are entirely dependent upon FLT3 activity for growth. […]

Data set [2] has as its system FLT3 phosphorylation in MV4-11 tumors. The data set is described as follows: FLT3 phosphorylation in MV4-11 tumors (immunoprecipitation / western blot). The format is in vivo, mouse. Particulars: tumors harvested 6 hours later. How it is done:
Tumors were harvested 6 hours later and snap frozen for assessment of FLT3 phosphorylation by western blots.
Harvested tumors were frozen and processed for immunoblot analysis of FLT3 phosphorylation in the following manner: 200 mg of tumor tissue was dounce homogenized in lysis buffer (50 mM Hepes, 150 mM NaCl, 10% Glycerol, 1% Triton-X-100, 10 mM NaF, 1 mM EDTA, 1.5 mM MgCl2, 10 mM NaPyrophosphate) supplemented with phosphatase (Sigma Cat# P2850) and protease inhibitors (Sigma Cat #P8340). Insoluble debris was removed by centrifugation at 1000×g for 5 minutes at 4° C. […] Immunoprecipitated FLT3 from tumor lysates were then washed four times with lysis buffer and separated by SDS-PAGE. […] Blots were then stripped and reprobed with anti-FLT3 antibody for normalization of phosphorylation signals.
In general terms: A western blot detects proteins with antibodies after separation by electrophoresis.

Data set [3] in a line: Body weight and overt toxicity in the MV4-11 xenograft study. Particulars: 11-day oral treatment, doses up to 200 mg/kg/day. Here is the method: If tumors in the control mice reached ˜10% of body weight (˜2.0 grams), the study was to be terminated. […] During the study, tumor growth was measured three times-a-week (M, W, F) using electronic Vernier calipers. Tumor volume (mm^3) was calculated using the formula […], where L=length (mm) and W=width (shortest distance in mm) of the tumor. Body weight was measured three times-a-week and a loss of body weight >10% was used as an indication of lack of compound tolerability. Unacceptable toxicity was defined as body weight loss >20% during the study. Mice were closely examined daily at each dose for overt clinical signs of adverse, drug-related side effects.
Mice were weighed three times each week (M, W, F) during the study and were examined daily at the time of dosing for overt clinical signs of any adverse, drug-related side effects.

The subject of data set [4] is MV4-11 cells. In words: Inhibition of MV4-11 cell proliferation (CellTiterGlo). It counts as cell-based. Particulars: Homo sapiens, 72 hours growth, uncertainty ±20%. How it is done:
To assess the cellular potency of compounds of the present invention, FLT3 specific growth inhibition was measured in the leukemic cell line MV4-11 (ATCC Number: CRL-9591). MV4-11 cells are derived from a patient with childhood acute myelomonocytic leukemia with an 11q23 translocation resulting in a MLL gene rearrangement and containing an FLT3-ITD mutation (AML subtype M4)(1,2). MV4-11 cells cannot grow and survive without active FLT3ITD.
To measure proliferation inhibition by compounds of the present invention, the luciferase based CellTiterGlo reagent (Promega), which quantifies total cell number based on total cellular ATP concentration, was used. Cells are plated at 10,000 cells per well in 100 ul of in RPMI media containing penn/strep, 10% FBS and 1 ng/ml GM-CSF or 1 ng/ml IL-3 for MV4-11 and Baf3 cells respectively.
Compound dilutions or 0.1% DMSO (vehicle control) are added to cells and the cells are allowed to grow for 72 hours at standard cell growth conditions (37° C., 5% CO2). For activity measurements in MV4-11 cells grown in 50% plasma, cells were plated at 10,000 cells per well in a 1:1 mixture of growth media and human plasma (final volume of 100 μL). To measure total cell growth an equal volume of CellTiterGlo reagent was added to each well, according to the manufacturer's instructions, and luminescence was quantified. Total cell growth was quantified as the difference in luminescent counts (relative light units, RLU) of cell number at Day 0 compared to total cell number at Day 3 (72 hours of growth and/or compound treatment). One hundred percent inhibition of growth is defined as an RLU equivalent to the Day 0 reading. Zero percent inhibition was defined as the RLU signal for the DMSO vehicle control at Day 3 of growth.
Data points are an average of triplicate samples. […] Inhibition and IC50 data analysis was done with GraphPad Prism using a non-linear regression fit with a multiparamater, sigmoidal dose-response (variable slope) equation.
On the technique in general: Cellular ATP, detected with luciferase, serves as a proxy for viable cell number.

The subject of data set [5] is MV4-11 tumor xenografts. In words: Nude mouse MV4-11 human tumor xenograft regression model. It counts as in vivo. Particulars: for final tumor weight: study termination. How it is done:
Female athymic nude mice (CD-1, nu/nu, 9-10 weeks old) were obtained from Charles River Laboratories (Wilmington, Mass.) and were maintained according to NIH standards. All mice were group housed (5 mice/cage) under clean-room conditions in sterile micro-isolator cages on a 12-hour light/dark cycle in a room maintained at 21-22° C. and 40-50% humidity. Mice were fed irradiated standard rodent diet and water ad libitum. All animals were housed in a Laboratory Animal Medicine facility that is fully accredited by the American Association for Assessment and Accreditation of Laboratory Animal Care (AAALAC). All procedures involving animals were conducted in compliance with the NIH Guide for the Care and Use of Laboratory Animals and all protocols were approved by an […] Animal Care and Use Committee (IACUC). The human leukemic MV4-11 cell line was obtained from the American Type Culture Collection (ATCC Number: CRL-9591) and propagated in RPMI medium containing 10% FBS (fetal bovine serum) and 5 ng/mL GM-CSF (R&D Systems). […] MV4-11 cells express constitutively active phosphorylated FLT3 receptor as a result of this naturally occurring FLT3/ITD mutation. Strong anti-tumor activity against MV4-11 tumor growth in the nude mouse tumor xenograft model is a desirable quality of the invention. […] Female athymic nude mice weighing no less than 20-21 grams were inoculated subcutaneously in the left inguinal region of the thigh with 5×10^6 tumor cells in a delivery volume of 0.2 mL. For regression studies, the tumors were allowed to grow to a pre-determined size prior to initiation of dosing.
(Xenograft models place foreign cells or tissue in a host animal.)

Broadly, the inhibition is the percentage by which the read-out fell short of the control. Low readings indicate little suppression, high ones strong suppression. In general, IC50 refers to the midpoint of a concentration-inhibition curve. The low end stands for greater potency, the high end for weaker potency. With `CN(C)CC(=O)N1CCC(c2ccc(NC(=O)c3nc(C#N)c[nH]3)c(C3=CCCCC3)c2)CC1` [Example 38, 4-Cyano-1H-imidazole-2-carboxylic acid {2-cyclohex-1-enyl-4-[1-(2-dimethylamino-acetyl)-piperidin-4-yl]-phenyl}-amide], the inhibition at 3 µM in data set [1] was < 50%. The “level of FLT3 phosphorylation in MV4-11 tumors versus vehicle” value in data set [2] (single dose 10 mg/kg po) is reported as “partial reduction”; in data set [2] (single dose 100 mg/kg po) it was “biologically significant reduction”. In data set [3], the “effects on body weight” value is given as “no significant adverse effects on body weight”. The molecule also yielded an IC50 in data set [4] of 23.5 nM. In data set [5] (10 mg/kg b.i.d. oral, 11 days), the “tumor growth delay compared to vehicle-treated control group” value is reported as “no significant growth delay”. Further, the final tumor weight result in data set [5] (10 mg/kg b.i.d. oral) was “no significant decrease in final tumor weight”; in data set [5] (50 mg/kg b.i.d. oral), “no measurable tumor mass detectable”.
